According to patent US10800752B2, “Substituted naphtho[2,3-b]furans as water-soluble prodrugs for preventing and/or treating cancer” (BOSTON BIOMEDICAL, INC., priority 2015, dated 2020):

What was measured:
[1] = Evaluation of a conversion rate to 2-acetylnaphtho[2,3-b]furan-4,9-dione in human plasma; assay type: in vitro ADME; settings: 1 umol/L; for % Measurement value (conversion rate to 2-acetylnaphtho[2,3-b]furan-4,9-dione): Human plasma, 37° C., incubation time 120 min; for % Measurement value of Activated form (conversion rate to 2-acetylnaphtho[2,3-b]furan-4,9-dione): human
Experimental: (§1) For test compounds, the decrease rate of the test compounds and the conversion rate thereof to 2-acetylnaphtho[2,3-b]furan-4,9-dione in human plasma, CD1 mouse plasma, and pH 7.4 phosphate buffer solution were measured.
(§2) Test compounds were incubated at the concentration of 1 umol/L in human plasma (cat. no. 12250210, COSMO BIO), CD1 mouse plasma (cat. no. AP3054, KAC), and phosphate buffer solution at 37° C., and removed at predetermined times (0, 5, 10, 30, 60, and 120 minutes). After protein-removing treatment was performed, they are analyzed with LC-MS. It should be noted that the protein-removing treatment used acetonitrile containing: 10% volume of 1 mol/L hydrochloric acid; 1% volume of 46% citric acid; and phenytoin as an internal standard.
(§3) The measurement condition of LC-MS is as described below. LC-MS condition column: Kinetex 2.6 u PFP 100 A 50×2.1 mm Column temperature: 40° C.
(§4) Mobile phase: A: 0.1% formic acid-containing water
(§5) • B: 0.1% formic acid-containing acetonitrile A/B(min): 95/5(0)→5/95(3)→5/95(4)→95/5(4.1)→95/5(6) Flow rate: 0.4 mL/min Detection: ESI (positive mode) Injection volume: 10 uL
In the same way as Example 6, the incubation time was set as 120 minutes later, and the conversion rate of each of various test compounds to 2-acetylnaphtho[2,3-b]furan-4,9-dione in human plasma, CD1 mouse plasma, and pH 7.4 phosphate buffer solution was measured.

[2] = Evaluation of a conversion rate to 2-acetylnaphtho[2,3-b]furan-4,9-dione in CD1 mouse plasma; assay type: in vitro ADME; settings: 1 umol/L; for % Measurement value (conversion rate to 2-acetylnaphtho[2,3-b]furan-4,9-dione): CD1 mouse plasma, 37° C., incubation time 120 min; for % Measurement value of Activated form (conversion rate to 2-acetylnaphtho[2,3-b]furan-4,9-dione): CD1, mouse
Experimental: as §1, §2, §3, §4, §5
Measurement values are calculated from the peak area ratio in LC-MS between an internal standard material, phenytoin and an active form, 2-acetylnaphtho[2,3-b]furan-4,9-dione, and are expressed in %.
In the same way as Example 6, the incubation time was set as 120 minutes later, and the conversion rate of each of various test compounds to 2-acetylnaphtho[2,3-b]furan-4,9-dione in human plasma, CD1 mouse plasma, and pH 7.4 phosphate buffer solution was measured. A series of the present compounds were confirmed to be converted to 2-acetylnaphtho[2,3-b]furan-4,9-dione in pH 7.4 phosphate buffer solution in addition to human plasma and CD1 mouse plasma. Therefore, a series of the test compounds of the present invention were confirmed to be converted to the activated form via a route other than an enzymatic conversion.

Solubility test = settings: 50 mmol/L glycine buffer solution (pH 2.0), room temperature, 24 hours shaking
Experimental: A water-soluble prodrug was added into 50 mmol/L glycine buffer solution (pH 2.0). After shaking at room temperature for 24 hours, the mixture was filtered through a membrane filter, and then the filtrate was measured with HPLC.
The measurement condition of HPLC is as described below. HPLC condition column: Acquity UPLC BEH C18, 1.7 um, 50×2.1 mm
Mobile phase: A: 0.1% trifluoroacetic acid-containing water

[3] = Evaluation of a conversion rate to 2-acetylnaphtho[2,3-b]furan-4,9-dione in pH 7.4 phosphate buffer solution; assay type: physicochemical; settings: 1 umol/L, 37° C.; for % Measurement value (conversion rate to 2-acetylnaphtho[2,3-b]furan-4,9-dione): Phosphate buffer solution (pH 7.4); for % Measurement value of Activated form (conversion rate to 2-acetylnaphtho[2,3-b]furan-4,9-dione): formed from Example 6, phosphate buffer solution (pH 7.4)
In short: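 Compounds at 1 umol/L were incubated at 37° C in human plasma, CD1 mouse plasma or pH 7.4 phosphate buffer, sampled up to 120 minutes, acid/acetonitrile-deproteinised and analysed by LC-MS (ESI positive). Conversion (%) derived from the peak area ratio of the active form to phenytoin internal standard.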

Row | SMILES | % Measurement value (conversion rate to 2-acetylnaphtho[2,3-b]furan-4,9-dione) [1] | % Measurement value (conversion rate to 2-acetylnaphtho[2,3-b]furan-4,9-dione) [2] | Solubility in pH 2.0 buffer solution (Solubility test) | % Measurement value (conversion rate to 2-acetylnaphtho[2,3-b]furan-4,9-dione) ([3]; incubation time 120 min) | also measured
1 | CC(=O)c1cc2c(OC(=O)NCCCCCCCCN)c3ccccc3c(O)c2o1.Cl [Example 75] | 79% | 60% | 0.1 mg/mL | 45% | 
2 | CC(=O)c1cc2c(OC(=O)NCCCCCNCC(=O)O)c3ccccc3c(OC(=O)NCCCCCNCC(=O)O)c2o1.Cl.Cl [Example 35] | 78% | 70% | >5.0 mg/mL | 38% | 
3 | CC(=O)c1cc2c(OC(=O)NCCCCCCCN)c3ccccc3c(OC(=O)NCCCCCCCN)c2o1.Cl.Cl [Example 38] | 85% | 72% | >5.0 mg/mL | 39% | 
4 | CC(=O)c1cc2c(OC(=O)NCCCCN)c3ccccc3c(O)c2o1.Cl [Example 74] | 70% | 62% | 4.9 mg/mL | 82% | 
5 | CC(=O)c1cc2c(O)c3ccccc3c(OC(=O)NCCNCC(=O)NCC(=O)O)c2o1.Cl [Example 83] | 67% | 67% | >5.0 mg/mL | 31% | 
6 | CC(=O)c1cc2c(o1)C(=O)c1ccccc1C2=O [Activated form, 2-acetylnaphtho[2,3-b]furan-4,9-dione, reference compound] |  |  |  |  | % Measurement value of Activated form (conversion rate to 2-acetylnaphtho[2,3-b]furan-4,9-dione) ([1]; 0 min): 0%; % Measurement value of Activated form (conversion rate to 2-acetylnaphtho[2,3-b]furan-4,9-dione) ([1]; 5 min): 24%; % Measurement value of Activated form (conversion rate to 2-acetylnaphtho[2,3-b]furan-4,9-dione) ([1]; 10 min): 31%; % Measurement value of Activated form (conversion rate to 2-acetylnaphtho[2,3-b]furan-4,9-dione) ([1]; 30 min): 48%; % Measurement value of Activated form (conversion rate to 2-acetylnaphtho[2,3-b]furan-4,9-dione) ([1]; 60 min): 64%; % Measurement value of Activated form (conversion rate to 2-acetylnaphtho[2,3-b]furan-4,9-dione) ([1]; 120 min): 71%; % Measurement value of Activated form (conversion rate to 2-acetylnaphtho[2,3-b]furan-4,9-dione) ([2]; 0 min): 0%; % Measurement value of Activated form (conversion rate to 2-acetylnaphtho[2,3-b]furan-4,9-dione) ([2]; 5 min): 23%; % Measurement value of Activated form (conversion rate to 2-acetylnaphtho[2,3-b]furan-4,9-dione) ([2]; 10 min): 31%; % Measurement value of Activated form (conversion rate to 2-acetylnaphtho[2,3-b]furan-4,9-dione) ([2]; 30 min): 63%; % Measurement value of Activated form (conversion rate to 2-acetylnaphtho[2,3-b]furan-4,9-dione) ([2]; 60 min): 67%; % Measurement value of Activated form (conversion rate to 2-acetylnaphtho[2,3-b]furan-4,9-dione) ([2]; 120 min): 76%; % Measurement value of Activated form (conversion rate to 2-acetylnaphtho[2,3-b]furan-4,9-dione) ([3]; incubation time 0 min): 0%; % Measurement value of Activated form (conversion rate to 2-acetylnaphtho[2,3-b]furan-4,9-dione) ([3]; incubation time 5 min): 20%; % Measurement value of Activated form (conversion rate to 2-acetylnaphtho[2,3-b]furan-4,9-dione) ([3]; incubation time 10 min): 29%; % Measurement value of Activated form (conversion rate to 2-acetylnaphtho[2,3-b]furan-4,9-dione) ([3]; incubation time 30 min): 55%; % Measurement value of Activated form (conversion rate to 2-acetylnaphtho[2,3-b]furan-4,9-dione) ([3]; incubation time 60 min): 61%; % Measurement value of Activated form (conversion rate to 2-acetylnaphtho[2,3-b]furan-4,9-dione) ([3]; incubation time 120 min): 78%
7 | CC(=O)c1cc2c(OC(=O)NCCCCCCN)c3ccccc3c(OC(=O)NCCCCCCN)c2o1.Cl.Cl [Example 37] | 35% | 33% | >5.0 mg/mL | 17% | 
8 | CCNCCCCOC(=O)Oc1c2ccccc2c(OC(=O)OCCCCNCC)c2oc(C(C)=O)cc12.Cl.Cl [Example 28] | 73% | 85% |  | 34% | 
9 | CC(=O)c1cc2c(O)c3ccccc3c(OC(=O)NCCNCC(=O)O)c2o1.Cl [Example 78] | 54% | 66% | 0.1 mg/mL | 43% | 
10 | CC(=O)c1cc2c(OC(=O)NC3CCNCC3)c3ccccc3c(OC(=O)NC3CCNCC3)c2o1.Cl.Cl [Example 8] | 79% | 79% |  | 49% | 
11 | CC(=O)c1cc2c(OC(=O)NCCCCCNCC(=O)O)c3ccccc3c(O)c2o1.Cl [Example 76] | 68% | 71% | 0.4 mg/mL | 57% | 
12 | CC(=O)c1cc2c(OC(=O)NCCOCCN)c3ccccc3c(OC(=O)NCCOCCN)c2o1.Cl.Cl [Example 9] | 65% | 81% |  | 50% | 
13 | CC(=O)c1cc2c(OC(=O)NCCCNCC(=O)O)c3ccccc3c(O)c2o1.Cl [Example 77] | 68% | 70% | 0.5 mg/mL | 66% | 
14 | COC(=O)[C@@H](N)CNC(=O)Oc1c2ccccc2c(OC(=O)NC[C@H](N)C(=O)OC)c2oc(C(C)=O)cc12.Cl.Cl [Example 32] | 81% | 74% | >5.0 mg/mL | 46% | 
15 | CC(=O)c1cc2c(OC(=O)NCCNCC(=O)NCC(=O)O)c3ccccc3c(OC(=O)NCCNCC(=O)NCC(=O)O)c2o1.Cl.Cl [Example 41] | 86% | 81% | >5.0 mg/mL | 52% | 
16 | CC(=O)c1cc2c(OC(=O)NCCN)c3ccccc3c(O)c2o1.Cl [Example 18] | 81% | 73% |  | 80% | 
17 | CC(=O)c1cc2c(OC(=O)NC3CCC(N)CC3)c3ccccc3c(OC(=O)NC3CCC(N)CC3)c2o1.Cl.Cl (centres unmarked) [Example 7] | 69% | 51% |  | 41% | 
